Measured values: US20190254274A1, “COMPOSITE MATERIALS DESIGNED TO POSSES BIO-ACTIVE PROPERTIES AND SYNTHESIS AND USES THEREO” (ADA Foundation, priority 2018, published 2019)

Assays:
Assay type in all cases: cell-based
[1] = system: TNF-alpha expression in primary human CD14+ cells; assay: TNF-alpha ELISA in LPS-stimulated human CD14+ monocyte-derived macrophages; conditions: 2 hr LPS+4 hr Tx
Description: All chemicals, unless otherwise indicated, were procured from Sigma-Aldrich and used without additional purification. Stock solutions of Docosahexaenoic acid (DHA) in Dimethyl Sulfoxide (DMSO), Aspirin in physiologically buffered saline (PBS, pH 7.4) were prepared prior to their use. E. Coli derived Lipopolysaccharide (LPS) was reconstituted at 1 ug/mL, sterile filtered, and stored at −80 C until needed. RAW 264.7 murine macrophage cell line was obtained from ATCC (Manassas, Va.). Cells were thawed at passage 5 or 6 and were maintained in DMEM complete growth media supplemented with 10% FBS (Hyclone, GE Healthcare)+1% Penn/strep (Gibco) until needed. Peripheral blood derived primary human CD14+monocytes (BioreclamationlVT, Albany, N.Y.) were also maintained in DMEM growth media until needed. […]
(§1) Following each treatment, sample media was tested for inflammatory tumor necrosis factor alpha (TNF-alpha) expression using a commercially available sandwich ELISA kits designed for either mouse or human cells (R&D Systems). Samples showing reduction in TNF-alpha were further analyzed using the Resolvin D1 and Resolvin D2 ELISA kits (Cayman Chemical). Mean and standard deviations were calculated for each analyte. ELISA results were normalized to the total protein readings of each well. […]

[2] = system: Resolvin D1 (RvD1) expression and release; assay: Resolvin D1 ELISA, LPS-challenged human macrophages
Description: (§2) All chemicals, unless otherwise indicated, were procured from Sigma-Aldrich and used without additional purification. Stock solutions of Docosahexaenoic acid (DHA) in Dimethyl Sulfoxide (DMSO), Aspirin in physiologically buffered saline (PBS, pH 7.4) were prepared prior to their use. E. Coli derived Lipopolysaccharide (LPS) was reconstituted at 1 ug/mL, sterile filtered, and stored at −80 C until needed. RAW 264.7 murine macrophage cell line was obtained from ATCC (Manassas, Va.). Cells were thawed at passage 5 or 6 and were maintained in DMEM complete growth media supplemented with 10% FBS (Hyclone, GE Healthcare)+1% Penn/strep (Gibco) until needed. Peripheral blood derived primary human CD14+monocytes (BioreclamationlVT, Albany, N.Y.) were also maintained in DMEM growth media until needed. Prior to experimentation, monocytes were differentiated to macrophages by using macrophage colony stimulating factor (M-CSF) at 25 ng/mL in media for up to three days or until cells had reached near confluence (˜95%). RAW 264.7 cells were seeded at roughly 5,000 cells per well in a 96-well plate and allowed to grow to near confluence. At confluence, cells were pre-treated with LPS for 2 hours. At the 2-hour mark, cells were treated with DMEM media containing DMSO (1% w/w, negative control), Aspirin (positive control, 10 nmol/L), DHA (100 umol/L) or a combination of the two. Bio-active composite material Hydroxyapatite-Docosahexaenoic acid (HA-DHA) was dispersed in DMSO and delivered at similar concentrations as DHA alone (described above). Cells were harvested at 2, 4, and 6 hours after LPS stimulation. Human CD14+ cells were seeded at roughly 3.3*10^4 cells per well in a 96-well plate and treated with MCSF until full confluence. Cells were treated with LPS for 2 hours, at which time they were exposed to the same treatments described above for RAW 264.7 cells. Cells were harvested at 4 and 6 hours. […]
as §1
(§3) To investigate further the anti-inflammatory effects the inventors observed in both human and murine macrophages challenged with pathogenic LPS and to determine if the bio-active composite material HA-DHA on its' own and in combination with Aspirin induces formation of pro-resolution mediators, the inventors measured Resolvin production secreted from challenged human macrophages.

[3] = system: Resolvin D2 (RvD2) expression and release; assay: Resolvin D2 ELISA, LPS-challenged human macrophages
Description: as §2, §1, §3

[4] = earlier time point (FIG. 19, Table 2)
[5] = 2 hours LPS + 6 hours treatment (Table 5)

| Compound | TNF-alpha expression (Mean) [1] [pg/µg] | Resolvin D1 (RvD1) expression and release (Mean) ([2]; 2-hour+6-hour Tx (Table 3)) | Resolvin D1 (RvD1) expression and release (Mean) [2, 4] | Resolvin D2 (RvD2) expression (Mean) ([3]; 2 hour LPS+4 hr Tx (Table 4)) | Resolvin D2 (RvD2) expression (Mean) [3, 5] |
| --- | --- | --- | --- | --- | --- |
| CC(=O)Oc1ccccc1C(=O)O [Aspirin] | 9.1 | 16.96 | 18.87 | 25.02 | 73.25 |
| CC/C=C\C/C=C\C/C=C\C/C=C\C/C=C\C/C=C\CCC(=O)O [DHA, 4Z, 7Z, 10Z, 13Z, 16Z, 19Z)-docosa-4,7,10,13,16,19-hexaenoic acid] | 10.5 | 678 | 771.1 | 194.2 | 161.9 |
